{"source": "the NIST ThermoML archive (doi:10.1021/acs.jced.8b01062)", "key": {"[1]": {"settings": "Crystal; DSC"}, "[2]": {"assay": "Molar enthalpy of transition or fusion", "settings": "Crystal; DSC"}}, "note": "Numbers after ± are expanded uncertainties.", "data": [{"smiles": "CC#C[C@]1(O)CC[C@H]2[C@@H]3CCC4=CC(=O)CCC4=C3[C@@H](c3ccc(N(C)C)cc3)C[C@@]21C", "note": "[mifepristone]", "values": [{"measurement": "Triple point temperature", "setting": "[1]", "value": "465.45 ± 0.81", "unit": "K"}, {"measurement": "Molar enthalpy of transition or fusion", "setting": "[2]", "value": "4.64 ± 0.21", "unit": "kcal/mol"}]}]}
